Experimental data: US20230127046A1, “G9a INHIBITOR” (RIKEN, priority 2019, published 2023)

biological target: T1, recombinant human G9a protein (Homo sapiens, UniProt Q96KQ7); test: G9a inhibitory activity test (ALPHA); assay type: biochemical; conditions: biotinylated histone H3 peptide (1-21), SAM, read-out: Inhibitory activity (G9a IC50 value)
T1 construct: purchased BPS Bioscience Inc. #51001
T1 sequence (Q96KQ7 785-1210 limits assumed): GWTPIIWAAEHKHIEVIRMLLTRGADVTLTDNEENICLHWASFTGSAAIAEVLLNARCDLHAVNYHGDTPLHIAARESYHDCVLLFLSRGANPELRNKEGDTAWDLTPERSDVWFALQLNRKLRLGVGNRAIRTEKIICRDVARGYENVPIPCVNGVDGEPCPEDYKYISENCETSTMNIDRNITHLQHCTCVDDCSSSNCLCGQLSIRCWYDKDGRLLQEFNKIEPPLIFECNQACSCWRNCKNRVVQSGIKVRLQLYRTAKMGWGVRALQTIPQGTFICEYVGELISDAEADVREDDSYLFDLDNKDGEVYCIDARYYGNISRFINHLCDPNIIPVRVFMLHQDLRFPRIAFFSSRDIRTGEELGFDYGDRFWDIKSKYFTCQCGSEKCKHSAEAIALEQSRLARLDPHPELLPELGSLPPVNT
Description: The G9a inhibitory activity of each compound was evaluated by measuring the enzymatic activity of G9a by amplified luminescence proximity homogeneous assay (ALPHA). First, 7.5 μL of a dilution of recombinant human G9a protein (BPS Bioscience Inc., #51001) diluted to 0.05 to 0.1 nM with a Tris buffer solution (50 mM Tris-HCl [pH 9.0], 50 mM NaCl, 0.01% Tween-20, 1 mM DTT), and 0.5 μL of the test compound were added to each well of a 384-well microplate (AlphaPlate-384 Shallow Well, PerkinElmer, Inc., #6008359), mixed by vortex, and incubated at room temperature for 10 minutes. 500 nM biotinylated histone H3 peptide (1-21) (AnaSpec Inc., #61702) and 150 μM SAM (Sigma-Aldrich Co. LLC, #A7007) were mixed at 1:1 in advance, and 2 μL of the mixture was added to each well, mixed by vortex, and then incubated at room temperature for 1 hour. AlphaLISA anti-H3K9me2 acceptor beads (PerkinElmer, Inc., #AL117C) and AlphaScreen streptavidin donor beads (PerkinElmer, Inc., #6760002B) were each diluted with an epigenetic buffer (PerkinElmer, Inc., AlphaLISA Epigenetics Buffer Kit #AL008C) to a final concentration of […] after addition. These dilutions were added to the reaction solution in the dark and incubated at room temperature for 1 hour in the dark. Then, measurement was performed using the EnSpire Alpha plate reader (PerkinElmer, Inc., Waltham, Mass., USA). The G9a inhibitory activity of the test compound was calculated as a compound concentration necessary for suppressing G9a enzymatic activity by 50% (IC50 value), by determining the percent inhibition of the compound when the value of a control without the addition of the compound was defined as 0% and the value of a control without the addition of the enzyme was defined as 100%.

SMILES | IC50
CCCCC(NC(=O)c1[nH]c2c(c1C)C(=O)CC(C)(C)C2)C(=O)NCc1ccc(CCCO)cc1 (stereo not drawn) [Example 1-1, N-[1-[[4-(3-hydroxypropyl)phenyl]methylamino]-1-oxohexan-2-yl]-3,6,6-trimethyl-4-oxo-5,7-dihydro-1H-indole-2-carboxamide] | ≥ 200 nM
CCCCC(NC(=O)c1[nH]c2c(c1C)C(=O)CC(C)(C)C2)C(=O)Nc1ccccc1SC (stereo not drawn) [Example 1-2] | 50 to 200 nM
CCCCC(NC(=O)c1[nH]c2c(c1C)C(=O)CC(C)(C)C2)C(=O)Nc1ccc(OC2CN(C)C2)nc1 (stereo not drawn) [Example 1-3] | 50 to 200 nM
CCCCC(NC(=O)c1[nH]c2c(c1C)C(=O)CC(C)(C)C2)C(=O)Nc1ccc(CCN2CCCCC2)cc1 (stereo not drawn) [Example 1-4] | < 50 nM
CCCCC(NC(=O)c1[nH]c2c(c1C)C(=O)CC(C)(C)C2)C(=O)Nc1ccc(NC2CCN(C)CC2)nc1 (stereo not drawn) [Example 1-5] | < 50 nM
CCCCC(NC(=O)c1[nH]c2c(c1C)C(=O)CC(C)(C)C2)C(=O)Nc1ccc(OC2CCN(C)CC2)nc1 (stereo not drawn) [Example 1-6] | 50 to 200 nM
CCCCC(NC(=O)c1[nH]c2c(c1C)C(=O)CC(C)(C)C2)C(=O)Nc1ccc(CN2CCC(F)(F)CC2)cc1 (stereo not drawn) [Example 1-7] | ≥ 200 nM
CCCCC(NC(=O)c1[nH]c2c(c1C)C(=O)CC(C)(C)C2)C(=O)Nc1ccc(OC2CCN(C)CC2)cc1OC (stereo not drawn) [Example 1-8] | < 50 nM
CCCCC(NC(=O)c1[nH]c2c(c1C)C(=O)CC(C)(C)C2)C(=O)Nc1ccc(C#N)cc1 (stereo not drawn) [Example 1-9] | ≥ 200 nM
CCCCC(NC(=O)c1[nH]c2c(c1C)C(=O)CC(C)(C)C2)C(=O)Nc1cccc(C#N)c1 (stereo not drawn) [Example 1-10] | ≥ 200 nM
CCCCC(NC(=O)c1[nH]c2c(c1C)C(=O)CC(C)(C)C2)C(=O)Nc1ccccc1OC (stereo not drawn) [Example 1-11] | ≥ 200 nM
CCCCC(NC(=O)c1[nH]c2c(c1C)C(=O)CC(C)(C)C2)C(=O)Nc1ccccc1C(C)C (stereo not drawn) [Example 1-12] | ≥ 200 nM
CCCCC(NC(=O)c1[nH]c2c(c1C)C(=O)CC(C)(C)C2)C(=O)Nc1ccccc1C (stereo not drawn) [Example 1-13] | ≥ 200 nM
CCCCC(NC(=O)c1[nH]c2c(c1C)C(=O)CC(C)(C)C2)C(=O)Nc1cccc2ncccc12 (stereo not drawn) [Example 1-14] | ≥ 200 nM
CCCCC(NC(=O)c1[nH]c2c(c1C)C(=O)CC(C)(C)C2)C(=O)Nc1cncc2ccccc12 (stereo not drawn) [Example 1-15] | ≥ 200 nM
CCCCC(NC(=O)c1[nH]c2c(c1C)C(=O)CC(C)(C)C2)C(=O)Nc1ccccc1SCC (stereo not drawn) [Example 1-16] | 50 to 200 nM
CCCCC(NC(=O)c1[nH]c2c(c1C)C(=O)CC(C)(C)C2)C(=O)Nc1ccnn1CC (stereo not drawn) [Example 1-17] | ≥ 200 nM
CCCCC(NC(=O)c1[nH]c2c(c1C)C(=O)CC(C)(C)C2)C(=O)NCc1ccc(OCCN(C)C)cc1 (stereo not drawn) [Example 1-18] | 50 to 200 nM
CCCCC(NC(=O)c1[nH]c2c(c1C)C(=O)CC(C)(C)C2)C(=O)Nc1ccccc1CCC (stereo not drawn) [Example 1-19] | ≥ 200 nM

SMILES | IC50
CCCCC(NC(=O)c1[nH]c2c(c1C)C(=O)CC(C)(C)C2)C(=O)Nc1ccc(N(C)C2CCN(C)CC2)nc1 (stereo not drawn) [Example 1-20] | < 50 nM
CCCCC(NC(=O)c1[nH]c2c(c1C)C(=O)CC(C)(C)C2)C(=O)Nc1ccc(C)cc1 (stereo not drawn) [Example 1-21] | ≥ 200 nM
CCCCC(NC(=O)c1[nH]c2c(c1C)C(=O)CC(C)(C)C2)C(=O)Nc1ccccc1COC (stereo not drawn) [Example 1-22] | ≥ 200 nM
CCCCC(NC(=O)c1[nH]c2c(c1C)C(=O)CC(C)(C)C2)C(=O)Nc1ccccc1CC (stereo not drawn) [Example 1-23] | 50 to 200 nM
CCCCC(NC(=O)c1[nH]c2c(c1C)C(=O)CC(C)(C)C2)C(=O)NC1CCCCC1 (stereo not drawn) [Example 1-24] | ≥ 200 nM
CCCCC(NC(=O)c1[nH]c2c(c1C)C(=O)CC(C)(C)C2)C(=O)Nc1cccc(C)c1C (stereo not drawn) [Example 1-25] | ≥ 200 nM
CCCCC(NC(=O)c1[nH]c2c(c1C)C(=O)CC(C)(C)C2)C(=O)Nc1ccc(F)cc1 (stereo not drawn) [Example 1-26] | ≥ 200 nM
CCCCC(NC(=O)c1[nH]c2c(c1C)C(=O)CC(C)(C)C2)C(=O)Nc1ccccc1C(F)(F)F (stereo not drawn) [Example 1-27] | ≥ 200 nM
CCCCC(NC(=O)c1[nH]c2c(c1C)C(=O)CC(C)(C)C2)C(=O)Nc1cccc(C)c1OC (stereo not drawn) [Example 1-28] | ≥ 200 nM
CCCCC(NC(=O)c1[nH]c2c(c1C)C(=O)CC(C)(C)C2)C(=O)NCc1ccccc1O (stereo not drawn) [Example 1-29] | ≥ 200 nM
CCCCC(NC(=O)c1[nH]c2c(c1C)C(=O)CC(C)(C)C2)C(=O)Nc1cccc(Cl)c1C (stereo not drawn) [Example 1-30] | ≥ 200 nM
CCCCC(NC(=O)c1[nH]c2c(c1C)C(=O)CC(C)(C)C2)C(=O)Nc1cccc2ccccc12 (stereo not drawn) [Example 1-31] | ≥ 200 nM
CCCCC(NC(=O)c1[nH]c2c(c1C)C(=O)CC(C)(C)C2)C(=O)Nc1ccc(OC2CCN(C)CC2)cc1 (stereo not drawn) [Example 1-32] | < 50 nM
CCCC[C@H](NC(=O)c1[nH]c2c(c1C)C(=O)CC(C)(C)C2)C(=O)Nc1ccccc1OC [Example 1-33] | ≥ 200 nM
CCCCC(NC(=O)c1[nH]c2c(c1C)C(=O)CC(C)(C)C2)C(=O)Nc1cccc2c1CCC2 (stereo not drawn) [Example 1-34] | ≥ 200 nM
CCCCC(NC(=O)c1[nH]c2c(c1C)C(=O)CC(C)(C)C2)C(=O)Nc1cccc2c1OCC2 (stereo not drawn) [Example 1-35] | ≥ 200 nM
CCCCC(NC(=O)c1[nH]c2c(c1C)C(=O)CC(C)(C)C2)C(=O)Nc1c(C)cccc1OC (stereo not drawn) [Example 1-36] | ≥ 200 nM
CCCCC(NC(=O)c1[nH]c2c(c1C)C(=O)CC(C)(C)C2)C(=O)Nc1ccc(C)cc1OC (stereo not drawn) [Example 1-37] | ≥ 200 nM
CCCCC(NC(=O)c1[nH]c2c(c1C)C(=O)CC(C)(C)C2)C(=O)Nc1cc(C)ccc1OC (stereo not drawn) [Example 1-38] | ≥ 200 nM

SMILES | IC50
CCCCC(NC(=O)c1[nH]c2c(c1C)C(=O)CC(C)(C)C2)C(=O)NCc1ccccc1 (stereo not drawn) [Example 1-39] | ≥ 200 nM
CCCCC(NC(=O)c1[nH]c2c(c1C)C(=O)CC(C)(C)C2)C(=O)NC(C)(C)c1ccccc1 (stereo not drawn) [Example 1-40] | ≥ 200 nM
CCCCC(NC(=O)c1[nH]c2c(c1C)C(=O)CC(C)(C)C2)C(=O)NCc1ccccc1Cl (stereo not drawn) [Example 1-41] | ≥ 200 nM
CCCCC(NC(=O)c1[nH]c2c(c1C)C(=O)CC(C)(C)C2)C(=O)NCc1cccc(Cl)c1 (stereo not drawn) [Example 1-42] | ≥ 200 nM
CCCCC(NC(=O)c1[nH]c2c(c1C)C(=O)CC(C)(C)C2)C(=O)NCc1ccc(Cl)cc1 (stereo not drawn) [Example 1-43] | ≥ 200 nM
CCCCC(NC(=O)c1[nH]c2c(c1C)C(=O)CC(C)(C)C2)C(=O)NCc1ccccc1OC (stereo not drawn) [Example 1-44] | ≥ 200 nM
CCCCC(NC(=O)c1[nH]c2c(c1C)C(=O)CC(C)(C)C2)C(=O)NCc1cccc(OC)c1 (stereo not drawn) [Example 1-45] | ≥ 200 nM
CCCCC(NC(=O)c1[nH]c2c(c1C)C(=O)CC(C)(C)C2)C(=O)NCc1ccc(OC)cc1 (stereo not drawn) [Example 1-46] | ≥ 200 nM
CCCCC(NC(=O)c1[nH]c2c(c1C)C(=O)CC(C)(C)C2)C(=O)NCc1cccc2ccccc12 (stereo not drawn) [Example 1-49] | ≥ 200 nM
CCCCC(NC(=O)c1[nH]c2c(c1C)C(=O)CC(C)(C)C2)C(=O)NCc1ccc2ccccc2c1 (stereo not drawn) [Example 1-50] | ≥ 200 nM
CCCCC(NC(=O)c1[nH]c2c(c1C)C(=O)CC(C)(C)C2)C(=O)NCc1ccc(CN(C)C)cc1 (stereo not drawn) [Example 1-51] | < 50 nM
CCCCC(NC(=O)c1[nH]c2c(c1C)C(=O)CC(C)(C)C2)C(=O)NCc1ccc(C#N)cc1 (stereo not drawn) [Example 1-52] | ≥ 200 nM
CCCCC(NC(=O)c1[nH]c2c(c1C)C(=O)CC(C)(C)C2)C(=O)NC1(c2ccccc2)CC1 (stereo not drawn) [Example 1-53] | 50 to 200 nM
CCCCC(NC(=O)c1[nH]c2c(c1C)C(=O)CC(C)(C)C2)C(=O)NCc1ccc(N2CCN(C)CC2)cc1 (stereo not drawn) [Example 1-54] | ≥ 200 nM
CCCCC(NC(=O)c1[nH]c2c(c1C)C(=O)CC(C)(C)C2)C(=O)Nc1cccc2c1CCN(C)C2 (stereo not drawn) [Example 1-55] | ≥ 200 nM
CCCCC(NC(=O)c1[nH]c2c(c1C)C(=O)CC(C)(C)C2)C(=O)NC1CCN(CCCN2CCCC2)CC1 (stereo not drawn) [Example 1-56] | ≥ 200 nM
CCCCC(NC(=O)c1[nH]c2c(c1C)C(=O)CC(C)(C)C2)C(=O)Nc1ccc(OCCN(C)C(=O)OC(C)(C)C)nc1 (stereo not drawn) [Example 1-57] | ≥ 200 nM
CCOc1ccc(NC(=O)C(CCC2CC2)NC(=O)c2[nH]c3c(c2C)C(=O)CC(C)(C)C3)cn1 (stereo not drawn) [Example 1-58] | ≥ 200 nM
Cc1c(C(=O)NC(CCC2CC2)C(=O)N2CCc3c(CN(C)C)cccc32)[nH]c2c1C(=O)CC(C)(C)C2 (stereo not drawn) [Example 1-59] | 50 to 200 nM
